Measured values from US8642640B2, “1-phenylpyrrole derivatives” (Exelixis, Inc., priority 2008, dated 2014).

Target: T1, human mineralocorticoid receptor (hMR) (Homo sapiens, UniProt P08235)
T1 construct: expressed in transfected cells; host or cells: HEK293
T1 sequence (P08235 726-964 limits assumed): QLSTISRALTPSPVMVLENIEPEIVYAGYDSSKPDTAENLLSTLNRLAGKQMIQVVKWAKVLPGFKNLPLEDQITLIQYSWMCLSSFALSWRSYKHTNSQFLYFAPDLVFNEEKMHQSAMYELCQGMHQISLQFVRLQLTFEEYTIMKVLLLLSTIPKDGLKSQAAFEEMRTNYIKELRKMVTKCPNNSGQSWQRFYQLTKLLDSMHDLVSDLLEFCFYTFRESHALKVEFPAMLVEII
Experiment: GAL4-hMR-LBD luciferase reporter assay in HEK293 cells with 1 nM aldosterone (Test Example 1);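 as to Imax: 0% is DMSO-only control and 100% is 1 nM aldosterone alone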
Type: cell-based
Details: for Emax: HEK293, read-out: Imax; for IC50: concentration showing Imax/2, HEK293, GAL4-hMR-LBD, 1 nM aldosterone, overnight, read-out: ICmax50
Description: A plasmid pM-hMR-LBD expressing GAL4-hMR receptor, which has a ligand binding domain (LBD, corresponding to approximately 308 amino acids at the carboxy terminus) of human mineralocorticoid receptor (hMR, NM_000901) bonded to a DNA binding domain of yeast transcription factor GAL4 (corresponding to 147 amino acids at the amino terminus), was prepared. Reporter assay was conducted by using a reporter plasmid (such as plasmid pFR-Luc of […] CLONING SYSTEMS) including a luciferase gene, having a sequence (UAS sequence) which binds to the DNA binding domain of GAL4.
The plasmid pM-hMR-LBD and the reporter plasmid as obtained above were gene transferred into renal cell line HEK293 of human fetus by lipofection. On the next day, cells were collected by trypsin treatment, and dispensed with DMEM culture medium containing 5% of FBS treated by activated charcoal, to a white 96-well plate (Costar) with the amount of 95 microliter per well.
The test compounds were used as dissolved in dimethyl sulfoxide at a predetermined concentration, and the test compounds suitably diluted with culture media were added to the cells on the white 96-well plate so that the final concentration becomes 0.1%. […] After the addition, cultivation was carried out overnight.
On the next day, the culture media was removed, and then luciferase substrate (Wako Pure Chemical Industries, Ltd.) was prepared in accordance with the attached document and were added to each well by 50 microliters. Stirring was conducted for approximately 30 minutes, and the amount of luminescence was measured for each well by using Analyst (Molecular Devices), to obtain luciferase activity. A graph which plots relative luciferase activity values, when the luciferase activity value of Control group 1 was taken as 0% and the luciferase activity value of Control group 2 was taken as 100%, for each of the amount of the test compound addition group was made.

Cc1c(C(=O)Nc2ccc(S(C)(=O)=O)cc2)cc(C[C@H](C)O)n1-c1ccc(Cl)cc1Cl [Example 43, 1-(2,4-Dichlorophenyl)-5-[(2S)-2-hydroxypropyl]-2-methyl-N-[4-(methylsulfonyl)phenyl]-1H-pyrrole-3-carboxamide]
Emax: 100%
IC50: 40 nM

Cc1cc(NC(=O)c2cc(C[C@H](C)O)n(-c3ccc(F)cc3OC(F)F)c2C)ccc1S(C)(=O)=O (single isomer, unassigned) [Example 22 - isomer B]
IC50: > 1000 nM

Cc1c(C(=O)Nc2ccc(S(C)(=O)=O)cc2)cc(C[C@H](C)O)n1-c1ccc(Cl)cc1OC(F)F (single isomer, unassigned) [Example 11 - isomer B]
IC50: > 1000 nM

Cc1c(C(=O)Nc2ccc(S(C)(=O)=O)cc2)cc(C[C@H](C)O)n1-c1ccc(Cl)cc1OC(F)F [Example 11, 1-[4-Chloro-2-(difluoromethoxy)phenyl]-5-[(2S)-2-hydroxypropyl]-2-methyl-N-[4-(methylsulfonyl)phenyl]-1H-pyrrole-3-carboxamide]
Emax: 107%
IC50: 13 nM

Cc1c(C(=O)Nc2ccc(S(C)(=O)=O)cc2)cc(CCO)n1-c1ccc(F)cc1Cl (single isomer, unassigned) [Example 3 - isomer A, 1-(2-Chloro-4-fluorophenyl)-5-(2-hydroxyethyl)-2-methyl-N-[4-(methylsulfonyl)phenyl]-1H-pyrrole-3-carboxamide]
Emax: 114%
IC50: 21 nM

Cc1c(C(=O)Nc2ccc(S(C)(=O)=O)cc2)cc(C[C@H](C)O)n1-c1ccc(F)cc1C(F)(F)F (single isomer, unassigned) [Example 5 - isomer B]
IC50: > 1000 nM

Cc1c(C(=O)Nc2ccc(S(C)(=O)=O)cc2)cc(CCO)n1-c1ccc(F)cc1Cl [Example 3, 1-(2-Chloro-4-fluorophenyl)-5-(2-hydroxyethyl)-2-methyl-N-[4-(methylsulfonyl)phenyl]-1H-pyrrole-3-carboxamide]
Emax: 109%
IC50: 30 nM

Cc1c(C(=O)Nc2ccc(S(C)(=O)=O)cc2)cc(C[C@H](C)O)n1-c1ccc(F)cc1OC(F)(F)F (single isomer, unassigned) [Example 16 - isomer B]
IC50: > 1000 nM

Cc1c(C(=O)Nc2ccc(S(C)(=O)=O)cc2)cc(C[C@H](C)O)n1-c1ccc(Cl)cc1Oc1ccc(F)cc1 [Example 45, 1-[4-Chloro-2-(4-fluorophenoxy)phenyl]-5-[(2S)-2-hydroxypropyl]-2-methyl-N-[4-(methylsulfonyl)phenyl]-1H-pyrrole-3-carboxamide]
Emax: 85%
IC50: 7.1 nM

Cc1c(C(=O)Nc2ccc(S(C)(=O)=O)cc2)cc(CCO)n1-c1ccc(F)cc1Cl (single isomer, unassigned) [Example 3 - isomer B, 1-(2-Chloro-4-fluorophenyl)-5-(2-hydroxyethyl)-2-methyl-N-[4-(methylsulfonyl)phenyl]-1H-pyrrole-3-carboxamide]
IC50: > 1000 nM

Cc1c(C(=O)Nc2ccc(S(C)(=O)=O)cc2)cc(C[C@H](C)O)n1-c1ccc(Cl)cc1-c1ccc(F)cc1 (single isomer, unassigned) [Example 50 - isomer B]
Emax: 104%
IC50: 1.2 nM

Cc1c(C(=O)Nc2ccc(S(C)(=O)=O)cc2)cc(C[C@H](C)O)n1-c1ccc(F)cc1OC(F)(F)F [Example 16, 1-[4-Fluoro-2-(trifluoromethoxy)phenyl]-5-[(2S)-2-hydroxypropyl]-2-methyl-N-[4-(methylsulfonyl)phenyl]-1H-pyrrole-3-carboxamide]
Emax: 94%
IC50: 7.8 nM

Cc1c(C(=O)Nc2ccc(S(C)(=O)=O)cc2)cc(CCO)n1-c1ccc(Cl)cc1C(F)(F)F (single isomer, unassigned) [Example 1 - isomer B, 1-[4-Chloro-2-(trifluoromethyl)phenyl]-5-(2-hydroxyethyl)-2-methyl-N-[4-(methylsulfonyl)phenyl]-1H-pyrrole-3-carboxamide]
IC50: > 1000 nM
